# Results taken from patent US11953435B2, “Zinc-responsive fluorophores” (Northwestern University, priority 2019, dated 2024).
# Where two headings read alike, the source gives them in different places.
# Tests used:
# [1] = cited from earlier work; for Brightness (ε*Φ/1000) / Extinction Coefficient (ε) / Quantum Yield (Φ) / λAbs (max) / λEm (max): values reported in Que et al.
# [2] = Stability of ZincBY-4 over 12 h by fluorescence intensity; assay type: physicochemical; details: for retention of fluorescence intensity after 12 hours: 10 mM glutathione (GSH); for fluorescence intensity after 12 hours: absence of GSH
# Description: (§1) Aqueous solutions were prepared by using de-ionized water with resistivity […], obtained using a Milli-Q water purification system. In order to properly compare the photophysical properties of ZincBY-2, ZincBY-3, and ZincBY-4 to ZincBY-1, the photophysical properties of ZincBY-1 we remeasured. […] Stock solutions of ZincBY-1, ZincBY-2, ZincBY-3, and ZincBY-4 were prepared at concentrations of 5 mM and stored at −20° C. in aliquots that were used immediately after thawing for each experiment. Unless otherwise stated, all spectroscopic methods were conducted in aqueous buffer containing 50 mM HEPES (pH 7.2) and 0.1 M KNO3. UV-visible spectra were acquired on a PerkinElmer Lambda 650 UV/Vis spectrophotometer using quartz cuvettes from Starna (1 cm path length, 10 cm path length used in extinction coefficient and quantum yield determination). Fluorescence spectra were acquired using a PerkinElmer LS 55 fluorescence spectrophotometer. For measurements containing zinc, 99.0% ZnNO3 hexahydrate (final concentration 5 μM) was used. For experiments analyzing apo probes, N,N,N′,N′-Tetrakis(2-pyridylmethyl)ethylenediamine (TPEN) (final concentration 5 μM) was added to solution. Quantum Yield and Extinction Coefficient Determination. Quantum yields for apo and holo ZincBY-1, ZincBY-2, ZincBY-3, and ZincBY-4 were determined by plotting absorbance vs. fluorescence intensity of solutions containing ZincBY-1, ZincBY-2, ZincBY-3, or ZincBY-4 at probe concentrations ranging from 50-250 nM. […] Fluorescein dissolved in 0.1 N NaOH was used as the quantum yield standard, using a literature-determined quantum yield of 0.95.^3 For all fluorophore solutions, fluorescence excitation was set at 490 nm and fluorescence emission was integrated from 510 nm to 650 nm. […] Fluorescence spectra were recorded using zinc probes (ZincBY-1, ZincBY-2, ZincBY-3, or ZincBY-4; 200 nM) and ZnSO4 (various concentrations). […] Free Zn^2+ was calculated according to a previously reported method (Ref. B4; incorporated by reference in its entirety). […] The fluorescence spectra of zinc probes (ZincBY-2, ZincBY-3, or ZincBY-4; 200 nM) wasere measured at various pH values (4.5-11). […] The fluorescence spectra of zinc probes (ZincBY-2, ZincBY-3, or ZincBY-4; 200 nM) were measured in the presence an excess of metal ion including 1 mM KNO3, 1 mM NaNO3, 1 mM CaSO4, 1 mM MgSO4, 15 μM MnSO4, 15 μM (NH4)2Fe(SO4)2, 15 μM NH4Fe(SO4)2, 15 μM CoSO4, 15 μM NiSO4, 15 μM CuSO4, 15 μM [Cu(CH3CN)4]PF6, 15 μM CdSO4, 15 μM Hg(NO3)2, 15 μM Pb(NO3)2, or 15 μM ZnSO4. The fluorescence spectra were compared to that of ZincBY-2 (200 nM), ZincBY-3 (200 nM), or ZincBY-4 (200 nM) in the presence of 10 μM TPEN. […] A log P value for each probe was determined by agitating nanomolar solutions of each probe in a 1:1 mixture of HEPES buffer and 1-octanol. […]
# [3] = Photophysical properties in solvents of varied dielectric constants (water/acetonitrile); assay type: physicochemical
# Description: as §1
SMILES,Brightness (ε*Φ/1000) ([1]; Apo),Extinction Coefficient (ε) ([1]; Apo),Quantum Yield (Φ) ([1]; Apo),λAbs (max) ([1]; Apo),λEm (max) ([1]; Apo),Brightness (ε*Φ/1000) ([1]; Zn-bound),Extinction Coefficient (ε) ([1]; Zn-bound),Quantum Yield (Φ) ([1]; Zn-bound),λAbs (max) ([1]; Zn-bound),λEm (max) ([1]; Zn-bound),Stokes shift ([1]; literature (Ref. A18)),retention of fluorescence intensity after 12 hours ([2]; apo),fluorescence intensity after 12 hours ([2]; apo),retention of fluorescence intensity after 12 hours ([2]; holo),fluorescence intensity after 12 hours ([2]; holo),emission maximum wavelength as the dielectric constant decreases ([3]; apo),fluorescence intensity as the dielectric constant changes ([3]; apo),emission maximum wavelength as the dielectric constant decreases ([3]; holo),fluorescence intensity as the dielectric constant changes ([3]; holo)
"COc1ccc2n1[B-](F)(F)[N+]1=C(N(CCN(Cc3ccccn3)Cc3ccccn3)Cc3ccccn3)C=CC1=C2c1c(C)cc(C)cc1C [ZincBY-1, reference compound]",0.57(6) M^−1cm^−1,1.1(0.05) × 10^4 M^−1cm^−1,0.052(3),533 nm,560 nm,2.6(5) M^−1cm^−1,2.0(3) × 10^4 M^−1cm^−1,0.13(2),533 nm,543 nm,11 nm,,,,,,,,
"CC(=O)NCCOc1ccc2n1[B-](F)(F)[N+]1=C(N(CCN(Cc3ccccn3)Cc3ccccn3)Cc3ccccn3)C=CC1=C2c1c(C)cc(C)cc1C [ZincBY-4, N-(2-((7-((2-(bis(pyridin-2-ylmethyl)amino)ethyl)(pyridin-2-ylmethyl)amino)-5,5-difluoro-10-mesityl-5H-5λ4,6λ4-dipyrrolo[1,2-c:2′,1′-f][1,3,2]diazaborinin-3-yl)oxy)ethyl)acetamide]",,,,,,,,,,,,40%,7%,97%,83%,does not change,does change in response to dielectric constant,575 nm,does not change as the dielectric constant changes
